From patent US20260258373A1, “PEPTIDE TAGS FOR PHAGE IMAGING” (priority 2022, published 2026)
Read-outs that look alike come from different tables or passages of the source. Cy5 = cyanine 5 dye

What was measured:
Good Vibes phage (GV) [1] = experiment: GVBP-Cy5 ELISA; format: binding; details: GV 0.1, 1, 10 or 63 μg coated; 0.05 μg peptide; fluorescence 647/665 nm; FIG. 5C
Method: Applicant then added 0.05 μg of GVBP-Cy5 peptide and incubated for 1 h. […] The fluorescence was measured using an Infinite 200 Rx plate reader with excitation and emission wavelengths of 647 and 665 nm, respectively, and a gain of 50.

[2] = system: GV bound to P. aeruginosa cells; experiment: Flow cytometry of GVBP-Cy5, cells with phages; format: binding, Good Vibes phage on Pseudomonas aeruginosa
Method: (§1) An overnight culture of P. aeruginosa was diluted 100-fold in fresh medium. The culture was incubated at 37° C. to reach OD600~0.2 before adding ~10^11 pfu of GV to the cells and incubating at 37° C. for 15 min. The cells were pelleted by centrifugation (6000 g, 15 min, at room temperature), washed once with 800 μL TM buffer (10 mM Tris base, 5 μM CaCl2), 10 mM MgSO4, pH 7.4) and resuspended in 200 μL of the same buffer. Applicant added GVBP-Cy5 (2×10^13 units) and incubated the mixture for 15 min at room temperature before centrifugal washing three times with 0.1% PBST (6000 g, 5 min, at room temperature). The pellet was resuspended in 200 μL TM buffer and the binding of GVBP-Cy5 to GV was analyzed using an Accuri C6 Plus flow cytometer (BD Biosciences). A total of 30,000 events were collected for each analysis.

P. aeruginosa cells = experiment: Flow cytometry of GVBP-Cy5, cells without phages; format: binding, Pseudomonas aeruginosa
Method: as §1

Good Vibes phage (GV) [3] = details: GV 1, 10 or 65 μg coated; 0.01 μg peptide; absorbance 450 nm; FIG. 5B
Method: GV (1, 10 or 65 μg) was coated onto Nunc Maxisorp flat-bottom 96-well plates and incubated for 1 h at room temperature, shaking at 400 rpm. All incubation and washing steps were carried out at room temperature, shaking at 400 rpm, unless otherwise stated. The wells were blocked for 1 h with 300 μL 5% (w/v) BSA followed by washing once with 0.1% PBST for 5 min. Applicant then added 0.01 μg of GVBP-biotin peptide to the wells and incubated for 1 h. The wells were then washed three times with 0.1% PBST for 5 min each before adding streptavidin HRP conjugate (ab7403) diluted 1:10,000 and incubating for 30 min. The wells were washed another three times as above before adding 100 μL of TMB substrate and incubating for 5-10 min in the dark. The reaction was stopped by adding 50 μL 2M H2SO4 and the absorbance was measured at 450 nm using an Infinite 200 Rx plate reader as described above.

Good Vibes phage (GV) [4] = experiment: Monoclonal phage ELISA (cross-reactivity / validation) against GV; format: binding; details: peptide displayed on monoclonal phage; cross-reactivity assay
Method: (§2) A Nunc Maxisorp flat-bottom 96-well plate was coated with 6×10^9 pfu GV per well (in TBS, pH 8) and incubated overnight at 4° C. Plates coated with 2% (w/v) bovine serum albumin (BSA) were used as negative controls. Next day, the plates were blocked with 2% (w/v) BSA at room temperature for 1 h, shaking at 800 rpm. The plates were then washed with 0.1% TBST (3×1 min) before adding 20 μL of amplified phage from each biopanning cycle to each well in 5% (w/v) BSA. After further incubation at room temperature for 1 h, shaking at 800 rpm, the plates were washed with 0.5% TBST (3×5 min) before adding 100 μL horseradish peroxidase (HRP)-conjugated anti-M13 monoclonal antibody (Abcam ab50370, diluted 1:500) and incubating at room temperature for 1 h, shaking at 800 rpm. After further washes in 0.5% TBST (3×5 min), Applicant added 100 μL of the tetramethylbenzidine (TMB) substrate (Thermo Fisher Scientific) to each well. The plates were incubated in the dark for 10 min and the absorbance was measured at 370 nm using an Infinite 200 Rx plate reader (Tecan Life Sciences) with 25 flashes in 96-well flat-bottom plate mode.
The protocol was similar to the polyclonal ELISA. […] Monoclonal phages differing in absorbance between GV and BSA by at least 0.3 units were isolated for DNA sanger sequencing (Eurofins Genomics). […]

Matera (MAT) = experiment: Monoclonal phage ELISA (cross-reactivity / validation) against MAT; format: binding, Matera (family Myoviridae); details: peptide displayed on monoclonal phage; cross-reactivity assay
[5] = system: cowpea mosaic virus (CPMV); experiment: Cross-reactivity ELISA against CPMV; format: binding; details: peptide displayed on monoclonal phage; cross-reactivity assay
Method: as §2
(§3) The protocol was similar to the polyclonal ELISA. Applicant coated wells with 10 μg cowpea mosaic virus (CPMV) or 1010 GV particles to assess their binding activity.

BSA = BSA (Bos taurus, UniProt P02769); experiment: Cross-reactivity ELISA against BSA (negative control); format: binding, bovine; details: peptide displayed on monoclonal phage, cross-reactivity assay
Method: as §2, §3

Good Vibes phage (GV) [6] = experiment: competitive ELISA, GVER2738 against GVER2738_SYBR on GV-coated wells and on BSA-coated wells

| Molecule | ELISA signal against GV (Good Vibes phage (GV) [4]) | ELISA signal against MAT (Matera (MAT)) | ELISA signal against CPMV [5] | ELISA signal against BSA (BSA) | further results |
| --- | --- | --- | --- | --- | --- |
| H2N-WDLPPIGRLSGNGGGSK/Cy5/—CO2H (H-WDLPPIGRLSGNGGGSK(Cy5)-OH; also: C-terminal Cy5, attachment not given here) [GVBP-Cy5] | – | – | – | – | intensity of signal of bound peptide with increasing amounts of GV coating the plates (Good Vibes phage (GV) [1]): became stronger; fluorescent signal (median fluorescence intensity, MFI) ([2]; cells and phages plus GVBP-Cy5, FIG. 6B): strongest fluorescent signal; APC+ shift ([2]; population containing both P. aeruginosa cells and GV phages, in the presence of GVBP-Cy5, FIG. 6A panel iv): 15.4%; binding to GV by flow cytometry ([2]; summary statement): significant binding; fluorescent signal (median fluorescence intensity, MFI) (P. aeruginosa cells; in the absence of phage, FIG. 6B): weaker signal; APC+ shift (P. aeruginosa cells; population containing P. aeruginosa cells without phages, peptide added, FIG. 6A panel iii): 7.6% |
| H2N-WDLPPIGRLSGNGGGSK/biotin/—CO2H [GVBP-biotin] | – | – | – | – | intensity of signal of bound peptide with increasing amounts of GV coating the plates (Good Vibes phage (GV) [3]): became stronger |
| THLPPIMRNLQF | strong signal | strong signal | not against CPMV or BSA | not against CPMV or BSA | – |
| WDLPPIGRLSGN [H2N-WDLPPIGRLSGN—CO2H] | strong signal | strong signal | not against CPMV or BSA | not against CPMV or BSA | – |
| WDLPPIGRLSGN (modifications not checked) [monoclonal phage GVER2738 displaying the peptide …] | – | – | – | – | fold of KD value, GV against BSA (Good Vibes phage (GV) [6]): 12 times |
